Values joined by “and” are separate entries in the source; they are usually repeats but may differ in a detail not shown here. Equal entries are not always repeated. “Also recorded” adds a separate entry of the source. Where two headings read alike, the source gives them in different places.
Experiments:
[1] = tested on: wild-type E. coli; assay: Growth inhibition of bacterial cell cultures; format: cell-based; details: for IC50: Escherichia coli, read-out: IC50 (inhibit the growth by half); for IC50/IC50(puro): wild-type E. coli, IC50(puro) = concentration causing 50% inhibition in peptide-bond formation at 2 mM puromycin
Description: (§1) S. aureus or E. coli cells (400 μl of a 0.700 OD560 preculture) containing wild-type or mutant ribosomes were added in 3.6 ml of LB (Luria Broth) medium and grown at 37°C in the presence or absence of CAM or PA–CAM conjugates until the optical density of the control culture (grown in the absence of drug) reached the value 0.700 at 560 nm. From the growth curves, the IC50 value for each strain was estimated as the concentration of the drug that is required to inhibit the growth by half.

[2] = tested on: wild-type S. aureus; assay: Growth inhibition of bacterial cell cultures; format: cell-based; details: Staphylococcus aureus, read-out: IC50 (inhibit the growth by half)
Description: as §1

[3] = tested on: Jurkat (T-cell acute lymphoblastic leukemia) cells; assay: Toxicity assay in leukemic cell line (cell counting, Annexin V flow cytometry); format: cell-based, human; details: for sensitivity of cells / inhibition of cell proliferation (cell counting): increasing concentrations
Description: (§2) Human leukemic cell lines, HS-Sultan (Burkitt's lymphoma) (European Collection of Cell Cultures, Salisbury, UK), Jurkat (T-cell acute lymphoblastic leukemia) and U937 (histiocytic lymphoma) (American Type Culture Collection, Manassas, USA), were adjusted to 1 × 10^9 cells/l in RPMI-1640 medium containing 1% Penicillin/Streptomycin and 10% fetal bovine serum and grown in triplicate in the presence or absence of CAM or PA–CAM conjugates for 4 days at 37°C, under a humidified 5% CO2 atmosphere. The medium was changed after 2 days of exposure; CAM or PA-CAM addition was repeated after medium change to keep the appropriate drug concentration. Aliquots were collected daily and counted in a CELL-DYN 3700 Hematology Analyzer. For cell necrosis and apoptosis assays, samples (10^6 cells) were collected daily and determined using the Annexin V-PE Apoptosis Detection Kit I (BD Pharmingen) for flow cytometry ([29]), as described by the manufacturer. Flow cytometry data were analyzed using the FlowJo flow cytometry analysis software. Necrotic and apoptotic cells were expressed as a percentage of total cells.
Figure S2. Toxicity assays in leukemic cell lines. Human leukemic cell lines, HS-Sultan, Jurkat, and U937 were adjusted to 1×10^9 cells/l in RPMI-1640 medium containing 1% Penicillin/Streptomycin and 10% fetal bovine serum and grown in triplicate in the presence or absence of CAM or compound 4 at the indicated concentrations for 5 days at 37°C, under a humidified 5% CO2 atmosphere. Aliquots were collected daily and counted in a CELL-DYN 3700 Hematology Analyzer.
Figure S4. Toxicity assays in Jurkat cells. Jurkat cells were adjusted to 1×10^9 cells/l in RPMI-1640 medium containing 1% Penicillin/Streptomycin and 10% fetal bovine serum and grown in triplicate in the presence or absence of CAM or compound 4 at the indicated concentrations for 4 days at 37°C, under a humidified 5% CO2 atmosphere. Cell necrosis and apoptosis assays were performed as described in Figure S3. Necrotic and apoptotic cells were expressed as a percentage of total cells.

[4] = tested on: complex C (poly(U)-programmed ribosomes from E. coli bearing Ac[3H]Phe-tRNA at the P-site), peptidyl transferase; design: method as in PMID 12930958; details: cited from earlier work
[5] = tested on: human peripheral blood cells; assay: Toxicity assay in human peripheral blood cells (cell counting); format: cell-based
Description: Peripheral blood was collected in EDTA-coated tubes from five healthy volunteers (age range: 25–30 years). Cell concentration was adjusted to 1.8 × 10^9 cells/l using RPMI-1640 medium (GIBCO BRL) containing 1% Penicillin/Streptomycin. CAM or PA–CAM conjugates were added at various concentrations and cells were cultured in triplicate under a humidified 5% CO2 atmosphere for 5 days, at 37°C. In parallel, cells were cultured in the absence of CAM or PA–CAM conjugates (control cultures). Counting of cells was performed daily in a CELL-DYN 3700 Hematology Analyzer (Abbott, USA) and values were expressed as a percentage of cells measured in control cultures.
Figure S1. Toxicity assays in human peripheral blood cells. Peripheral blood was collected in EDTA-coated tubes from 5 healthy volunteers (age range: 25-30 years). Cell concentration was adjusted to 1.8×10^9 cells/l using RPMI-1640 medium (GIBCO BRL) containing 1% penicillin/streptomycin. CAM or compound 4 was added at final concentrations equal to 30 or 60 μM and cells were cultured in triplicate under a humidified 5% CO2 atmosphere for 5 days, at 37°C. Control cultures were carried out in the absence of CAM or compound 4. Cultures were counted daily in a CELL-DYN 3700 Hematology Analyzer and values are expressed as a percentage of cells measured in control cultures.

[6] = tested on: U937 (histiocytic lymphoma) cells; assay: Toxicity assay in leukemic cell line (cell counting); format: cell-based, human; details: increasing concentrations
Description: as §2
Figure S2. Toxicity assays in leukemic cell lines. […] Aliquots were collected daily and counted in a CELL-DYN 3700 Hematology Analyzer.

[7] = tested on: complex C (poly(U)-programmed ribosomes from E. coli bearing Ac[3H]Phe-tRNA at the P-site), peptidyl transferase; assay: Inhibition of AcPhe-puromycin synthesis (puromycin reaction, peptide bond formation); format: biochemical; details: for Ki: 25°C, buffer A
Description: Isolation of 70S ribosomes from E. coli K12 cells and preparation of Ac[^3H]Phe-tRNA^Phe charged to 80% were performed, as described previously ([23]). The post-translocation complex of poly(U)-programmed ribosomes (complex C), bearing tRNA^Phe at the E-site and Ac[^3H]Phe-tRNA at the P-site was prepared in buffer A (100 mM Tris-HCl pH 7.2, 6 mM (CH3COO)2Mg, 100 mM NH4Cl and 6 mM 2-mercaptoethanol). The percentage of active ribosomes in AcPhe-tRNA binding was 72%. This ribosomal population was more than 90% reactive toward puromycin.
The reaction between complex C and excess puromycin (S), a pseudo-substrate which binds to the ribosomal A-site, was performed at 25°C in buffer A and analyzed as described in detail elsewhere ([11]). Briefly, since the reaction followed first-order kinetics, the first-order rate constant kobs at each concentration of puromycin was determined by fitting the corrected x-values into Equation ([1]), (1) where x is the product Ac[^3H]Phe-puromycin expressed as the percentage of complex C radioactivity added in the reaction mixture and t the time of the reaction. kobs is related to the puromycin concentration, [S], by the relationship, (2) where kcat is the catalytic rate constant of PTase and KS the affinity constant of puromycin for complex C.
In the presence of CAM–polyamine conjugates, biphasic logarithmic time plots were obtained. The slope of the straight line through the origin was taken as the value of the apparent rate constant, kobs(early), at the early phase of the reaction, while the slope of the second straight line was taken as the value of the rate constant, kobs(late), at the late phase of the reaction.

| Compound | IC50 ([1]; WT-E. coli, LB medium, 37°C) [µM] | IC50/IC50(puro) [1] | IC50 ([2]; WT-S. aureus, LB medium, 37°C) [µM] | induction of apoptosis (flow cytometry) ([3]; 60 μM) | induction of necrosis (flow cytometry) ([3]; 60 μM) | sensitivity of cells / inhibition of cell proliferation (cell counting) [3] | koff [4] [s⁻¹] | Ki ([4]; early phase) [µM] | Ki ([4]; late phase) [µM] | effects on other types of leukocytes ([5]; 30 μM for 24 or 48 h) | reduction in the viability of neutrophils ([5]; 30 μM for 24 or 48 h) [%] | sensitivity of cells (cell counting) [6] | IC50 [1] [µM] | IC50 [2] [µM] | effect on the viability of human monocytes and lymphocytes ([5]; 120 h culture period) | toxicity to neutrophils ([5]; 120 h culture period) | Ki ([7]; early phase of the reaction (encounter complex CI)) | Ki ([7]; late phase of the reaction (complex C*I)) [µM] | potency relative to CAM, based on Kik7/(k6 + k7) ([7]; overall two-step inhibition of the puromycin reaction) [fold] |
| --- | --- | --- | --- | --- | --- | --- | --- | --- | --- | --- | --- | --- | --- | --- | --- | --- | --- | --- | --- |
| O=C(N[C@H](CO)[C@H](O)c1ccc([N+](=O)[O-])cc1)C(Cl)Cl [CAM, Chloramphenicol] | 6.2 ± 0.5 | 1.17 ± 0.13 | 3.1 ± 0.3 | failed to induce apoptosis | failed to induce necrosis/apoptosis | sensitive | 0.0165 ± 0.00067 | 3.1 ± 0.3 | 0.88 ± 0.07 | negligible | 20 | – | – | – | – | – | – | – | – |
| NCCCN(CCCCN(Cc1ccccc1)Cc1ccccc1)C(=O)CCC(=O)N[C@H](CO)[C@H](O)c1ccc([N+](=O)[O-])cc1 [Compound 4] | – | 5.60 ± 0.76 | – | – | induced necrosis | sensitive; also recorded: more effective than CAM | – | – | – | negligible | – | insensitive | 9.4 ± 0.8 | 4.7 ± 0.5 | little or no effect | moderate and transient toxicity | 0.975 µM and 0.98 µM | 0.28 ± 0.03 | 3 |
